Data from article PMC9490236, “Accurate de novo design of membrane-traversing macrocycles” (Cell, 2022).
Where a SMILES comes first, the peptide text is derived from it. [ ]: non-standard residue; d: D form. dNMeI = CC[C@@H](C)[C@@H](NC)C(=O)O; NMeF = CN[C@@H](Cc1ccccc1)C(=O)O; NMeI = CC[C@H](C)[C@H](NC)C(=O)O; NMeL = CN[C@@H](CC(C)C)C(=O)O; dNMeL = CN[C@H](CC(C)C)C(=O)O; NMeA = CN[C@@H](C)C(=O)O; dNMeA = CN[C@H](C)C(=O)O; Aib = CC(C)(N)C(=O)O

Tests used:
[1] = Caco-2 permeability assay (apical to basolateral); type: in vitro ADME, human; settings: for Papp A→B: Caco-2, Caco_Papp_Average; for Papp at 90 min, 50 µM: human
Experimental: (§1) Human colon adenocarcinoma-derived Caco-2 cell line was used as a model system to investigate the intestinal epithelial permeability of our designs. Caco-2 cells were propagated in T125 flasks (Corning, Merck) using Dulbecco’s modified Eagle medium supplemented with 10% (v/v) fetal bovine serum, 1% (v/v) nonessential amino acids, and 1% (v/v) penicillin-streptomycin (Gibco, Thermo Fisher Scientific) at 37°C in an atmosphere of 5% CO2. Cells were subcultured when they reached 80% confluence.
(§2) The permeability of designed peptides was evaluated using an accelerated 6-day Caco-2 permeability assay as described previously ([Sevin et al., 2013]). In brief, cells were seeded into the 12-well Transwell plates with 0.4 μm polyester membrane inserts (Corning, Merck) to give 4.0 × 10^5 cells/well. The complete assay medium contained Dulbecco’s modified Eagle medium supplemented with 10% (v/v) fetal bovine serum, 1% (v/v) nonessential amino acids, and 0.4 μg/mL puromycin. The medium in plates was renewed every second day. The inserts received 0.75 mL of assay medium in the upper compartment (apical chamber) and 1.5 mL in the bottom compartment (basolateral chamber) individually. After 6-day incubation or until the cells formed monolayers, the medium in the apical and basolateral chamber was replaced with peptide solutions at 50 μM or Hanks' Balanced Salt Solution (HBSS), separately. The plates were incubated for 90 min at 37°C on an orbital shaker (60 rpm). The peptide concentration of solutions in the apical and basolateral compartments was subsequently quantified using LC-MS (Qstar Elite, AB Sciex Australia) to evaluate the transmembrane flux of peptides in the apical-to-basolateral direction. Membrane integrity of the Caco-2 cell monolayer was validated using trans-epithelial electrical resistance (TEER) measurements before and after the assays. Atenolol and quinidine were included as negative and positive controls in all assays.

Caco-2 cells = assay: Caco-2 permeability assay (apical to basolateral); type: in vitro ADME, human; settings: Caco-2
Experimental: as §1, §2

[2] = PAMPA
in vitro = settings: PAMPA, PAMPA_Papp_Avg

Compound	Papp A→B [1] [×10⁻⁶ cm/s]	Caco_R1 (Caco-2 cells)	Caco_R3 (Caco-2 cells)	PAMPA_R1 [2]	PAMPA_R3 [2]	Papp (in vitro) [×10⁻⁶ cm/s]	Papp at 90 min, 50 µM ([1]; Caco-2) [×10⁻⁶ cm/s]	Papp ([1]; Caco-2) [×10⁻⁶ cm/s]
CC(C)C[C@@H]1C(=O)N[C@H](CC(C)C)C(=O)N2CCC[C@@H]2C(=O)N2CCC[C@@H]2C(=O)N(C)[C@@H](C)C(=O)N[C@H](Cc2ccccc2)C(=O)N[C@@H](C)C(=O)N(C)[C@@H](CC(C)C)C(=O)N1C [Design D8.10, DPRO DPRO *ALA DPHE ALA *LEU *DLEU DLEU] (cyclo(A[NMeL][dNMeL][dL][dP][dP][NMeA][dF]))	3.91	3.8	3.36	8.77E-07	1.78E-06	1.23	–	–
CC[C@H](C)[C@@H]1NC(=O)[C@@H](CC(C)C)N(C)C(=O)[C@H](CC(C)C)N(C)C(=O)[C@@H](Cc2ccccc2)NC(=O)[C@@H](CC(C)C)N(C)C(=O)[C@H]2CCCN2C(=O)[C@H]2CCCN2C(=O)[C@@H]2CCCN2C(=O)[C@@H](C(C)C)NC(=O)[C@@H]2CCCN2C(=O)[C@H](C)NC1=O [Design D11.11, PRO DPRO DPRO *DLEU DPHE *LEU *DLEU ILE ALA PRO DVAL] (cyclo(AP[dV]P[dP][dP][dNMeL][dF][NMeL][dNMeL]I))	4.92	2.88	5.78	1.97E-06	2.38E-06	2.26	–	–
CC[C@@H](C)[C@H]1NC(=O)[C@@H](CC(C)C)NC(=O)[C@H](C(C)C)NC(=O)[C@@H](CC(C)C)N(C)C(=O)[C@@H]2CCCN2C(=O)[C@H](C)NC(=O)[C@H](CC(C)C)N(C)C(=O)[C@H]2CCCN2C(=O)[C@H](C)N(C)C(=O)[C@@H](CC(C)C)N(C)C(=O)[C@@H]2CCCN2C1=O [Design D11.5, ALA PRO *DLEU VAL DLEU DILE PRO *DLEU *ALA DPRO *LEU] (cyclo(AP[dNMeL]V[dL][dI]P[dNMeL][NMeA][dP][NMeL]))	3.84	2.93	3.89	2.56E-06	3.12E-06	2.81	–	–
CC[C@H](C)[C@H]1C(=O)N[C@H](C)C(=O)N[C@@H](CC(C)C)C(=O)N[C@@H](C(C)C)C(=O)N2CCC[C@@H]2C(=O)N(C)[C@@H](CC(C)C)C(=O)N[C@@H](C(C)C)C(=O)N2CCC[C@H]2C(=O)N(C)[C@H](CC(C)C)C(=O)N[C@@H](C(C)C)C(=O)N1C [Design D10.19, DALA LEU VAL DPRO *LEU VAL PRO *DLEU VAL *ILE] (cyclo(LV[dP][NMeL]VP[dNMeL]V[NMeI][dA]))	17.1	15.38	17.24	7.24E-06	7.38E-06	6.36	> 10	–
CC(C)C[C@@H]1NC(=O)[C@@H](CC(C)C)NC(=O)[C@H]2CCCN2C(=O)[C@H](CC(C)C)NC(=O)[C@@H](CC(C)C)NC(=O)[C@H](CC(C)C)NC(=O)[C@@H]2CCCN2C(=O)[C@@H](C)NC1=O [Design D8.1, DLEU LEU DPRO DLEU LEU DALA PRO LEU] (cyclo(L[dA]PL[dL]L[dP][dL]))	23.3	27.58	23.71	7.08E-06	6.42E-06	6.94	–	23.3
CC(C)C[C@@H]1C(=O)N[C@H](CC(C)C)C(=O)N2CCC[C@@H]2C(=O)N2CCC[C@@H]2C(=O)N(C)[C@@H](CC(C)C)C(=O)N[C@H](CC(C)C)C(=O)N2CCC[C@@H]2C(=O)N2CCC[C@H]2C(=O)N1C [Design D8.32, DPRO DPRO *LEU DLEU DPRO PRO *DLEU DLEU] (cyclo([dNMeL][dL][dP][dP][NMeL][dL][dP]P))	2.73	2.78	2.54	5.82E-06	5.16E-06	5.37	–	–
CC[C@@H](C)[C@H]1NC(=O)[C@@H](CC(C)C)N(C)C(=O)[C@@H]2CCCN2C(=O)[C@@H]([C@H](C)CC)NC(=O)[C@@H](CC(C)C)NC(=O)[C@@H](CC(C)C)N(C)C(=O)[C@@H]2CCCN2C(=O)[C@@H](C(C)C)NC1=O [Design D8.8, PRO *DLEU DLEU DILE PRO *DLEU DILE DVAL] (cyclo(P[dNMeL][dI][dV]P[dNMeL][dL][dI]))	23	20.91	24.11	9.54E-06	3.47E-06	5.9	–	–
CC[C@@H](C)[C@H]1NC(=O)[C@@H](Cc2ccccc2)NC(=O)[C@@H](CC(C)C)NC(=O)[C@@H]2CCCN2C(=O)[C@H]2CCCN2C(=O)[C@H](CC(C)C)NC(=O)[C@H](CC(C)C)NC(=O)[C@@H](CC(C)C)N(C)C(=O)[C@H](C)N(C)C(=O)[C@H]2CCCN2C1=O [Design D10.34, DPHE DILE DPRO *ALA *DLEU LEU LEU DPRO PRO DLEU] (cyclo([dL][dF][dI][dP][NMeA][dNMeL]LL[dP]P))	15	14.68	14.14	4.77E-06	4.57E-06	4.51	> 10	–
CC[C@@H](C)[C@H]1NC(=O)[C@H]([C@@H](C)CC)NC(=O)[C@H](Cc2ccccc2)N(C)C(=O)[C@H]2CCCN2C(=O)[C@@H]([C@H](C)CC)NC(=O)[C@@H]([C@H](C)CC)N(C)C(=O)[C@H](CC(C)C)NC(=O)[C@H]2CCCN2C(=O)[C@@H]2CCCN2C(=O)[C@H](C(C)C)NC(=O)[C@H]2CCCN2C1=O [Design D11.4, VAL PRO DPRO LEU *DILE DILE DPRO *PHE ILE DILE DPRO] (cyclo(I[dI][dP]VP[dP]L[dNMeI][dI][dP][NMeF]))	4.99	3.83	6.55	1.64E-06	6.73E-07	1.47	–	–
CC[C@@H](C)[C@H]1NC(=O)[C@H](CC(C)C)N(C)C(=O)[C@H]2CCCN2C(=O)[C@H](CC(C)C)NC(=O)[C@H](Cc2ccccc2)N(C)C(=O)[C@H](CC(C)C)N(C)C(=O)[C@@H](C(C)C)NC(=O)[C@H](C)NC(=O)[C@H]2CCCN2C(=O)[C@@H]2CCCN2C1=O [Design D10.17.p2, *LEU *PHE LEU DPRO *LEU DILE PRO DPRO ALA DVAL]	8.7	12.57	7.84	3.37E-06	2.91E-06	2.69	–	–
CC(C)C[C@@H]1NC(=O)[C@H]2CCCN2C(=O)[C@@H]2CCCN2C(=O)[C@H](CC(C)C)NC(=O)[C@@H](CC(C)C)NC(=O)[C@@H](C)N(C)C(=O)[C@@H](C)N(C)C(=O)[C@@H](C(C)C)NC1=O [Design D8.6, LEU PRO DPRO LEU DVAL *DALA *DALA DLEU] (cyclo(LP[dP]L[dV][dNMeA][dNMeA][dL]))	0.737	0.86	0.45	3.54E-06	3.44E-06	3.35	–	–
CC[C@H](C)[C@@H]1NC(=O)[C@@H](CC(C)C)N(C)C(=O)[C@@H]2CCCN2C(=O)[C@H](C(C)C)NC(=O)C(C)(C)NC(=O)[C@H](CC(C)C)NC(=O)C(C)(C)NC(=O)[C@@H]2CCCN2C(=O)[C@H]2CCCN2C1=O [Design D9.1, DPRO PRO AIB LEU AIB VAL PRO *DLEU ILE] (cyclo([Aib]L[Aib]VP[dNMeL]I[dP]P))	0.897	0.42	2.09	1.43E-06	1.63E-06	1.59	–	–
